Columns and labels:
dry eye syndrome = tested on: dry eye syndrome; set-up: method as in PMID 33057006; conditions: rat model of dry eye syndrome; cited from earlier work
[1] = tested on: elastase-like, cathepsin G and kallikrein activities in colonic tissue; assay: Other specific proteolytic activities in colonic tissue of post-colitis rats after intracolonic administration; type: in vivo, Sprague–Dawley rats; conditions: 5 mg/kg intracolonic, 90 min
Experimental: (§1) The serine protease inhibitor UAMC-00050 (0.1–1.0–2.5–5.0 mg/kg, dissolved in a volume of 200 µL) or its vehicle (5% DMSO in H2O) was delivered colonically using a flexible catheter (18 G, length 4.5 cm) under short-lasting isoflurane anesthesia (5.0% induction, 1.5% maintenance). To prevent expulsion of the enema, animals were held in a Trendelenburg position for 90 s. Doses for intracolonic administration were based on the doses known to be effective via an i.p. administration and adapted afterwards based on preliminary results.
(§2) Trypsin-like, chymotrypsin-like, cathepsin G, elastase-like, and kallikrein activities were determined in colon tissue and fecal samples to profile serine protease activity. […]
(§3) Boc-Gln-Ala-Arg-AMC (75 µM) and n-Tosyl-Gly-Pro-Arg-AMC (100 µM) in 50 mM Tris-HCl pH 8.0 containing 120 mM NaCl were used to measure the trypsin-like activity. […] The fluorescence was measured during 20 min at 37 °C on a Tecan Infinite F200 Pro microtiter plate reader. The other activities were assessed in a similar assay, using the substrates mentioned below. Chymotrypsin-like and kallikrein activity were measured with Suc-Ala-Ala-Pro-Phe-AMC (0.45 mM) and H-Pro-Phe-Arg-AMC (0.45 mM), respectively. Elastase-like activity was measured using two assays, one using Suc-Ala-Ala-Pro-Val-AMC as a substrate and the other using Suc-Ala-Ala-Ala-AMC (both 0.45 mM). […]

[2] = tested on: visceral hypersensitivity in post-colitis rats; assay: Visceromotor response (VMR) to colorectal distensions, TNBS-induced post-colitis rat model for visceral hypersensitivity; type: in vivo, Sprague–Dawley rats
Experimental: A well-characterized 2,4,6-trinitrobenzene sulfonic acid (TNBS)-induced post-colitis rat model for visceral hypersensitivity was used in this study. Details on the procedures are given in subsequent paragraphs. After acclimation, an enema containing TNBS was used to induce a mild colitis, whereas control rats received an enema containing saline. The presence and severity of acute colitis were scored colonoscopically 3 days later. Subsequently, a colonoscopy was performed starting from day 10 and repeated every 4 days until complete mucosal healing was observed. Then, electromyographic (EMG) electrodes were implanted in the abdominal musculature of the rat and exteriorized at the scapular region. Three days later, the serine protease inhibitor UAMC-00050 or its vehicle was given intracolonically. Thirty minutes after the single administration of the drug, visceral sensitivity to colorectal distensions and colonic compliance were evaluated. Finally, animals were sacrificed (exsanguination under pentobarbital anesthesia, 45 mg/kg i.p.) and inflammatory parameters (colonoscopy, macroscopy, microscopy, and myeloperoxidase (MPO) activity) were scored to confirm the post-inflammatory state of the animal and to evaluate effects of the compound on mucosal inflammation. Colonic and fecal samples were taken for the assessment of proteolytic activities using selective fluorogenic substrates. Pharmacokinetic experiments were performed in a separate group of rats.
After an overnight fast with free access to water, rats were anesthetized with a mixture of ketamine (35 mg/kg, i.p.) and xylazine (5 mg/kg, i.p.) and placed in a Trendelenburg position. A flexible catheter (18 G, length 4.5 cm) was used to administer a 250 µL TNBS-enema (4 mg in 50% ethanol) or saline in the distal colon of randomized colitis and control rats, respectively, according to previously published protocols. Afterwards, animals were allowed to recover in their own cages with free access to water and food.
as §1
Contractions of the abdominal musculature in response to isobaric colorectal distensions, a nociceptive reflex known as the visceromotor response (VMR), were used to quantify colonic mechanosensitivity in vivo [24, 28]. To this end, 2 Teflon-coated EMG electrodes (AISI 316 stainless steel, ø 0.125 mm, Advent Research Material Ltd., Oxford, UK) were sutured into the abdominal external oblique muscle, in close proximity to the right inguinal ligament and 5 mm apart. Then, the electrodes were tunneled, subcutaneously towards the base of the neck, exteriorized, and fixated with a plastic cap for future access. Rats were single-housed during their 3-day recovery after the surgical procedure to protect the electrodes and plastic cap from damage.
On the day of the VMR experiment, a lubricated balloon (length 5.0 cm) was introduced into the colorectum of the conscious rat and connected to a barostat, allowing phasic isobaric colonic distensions (Distender Series IIR Barostat, G&J Electronics, Toronto, ON, Canada). EMG electrodes were attached to a data acquisition system and a standardized, pressure-controlled phasic distension protocol was used to expand the balloon (20 s distensions of 10–20–30–40–60 mmHg, 4 min interval). […]

[3] = tested on: trypsin-like activity in colonic tissue; assay: Trypsin-like activity in colonic tissue after intracolonic administration (fluorogenic substrates); type: in vivo, Sprague–Dawley rats; conditions: post-colitis rats, 5 mg/kg intracolonic, colon harvested 90 min after administration, median (IQR), n = 12; vehicle 1.08 (1.19), p < 0.01
Experimental: as §1, §2, §3

colonic mucosal damage = assay: Macroscopic score of mucosal damage; type: in vivo, Sprague–Dawley rats; conditions: for Macroscopy, Day of VMR: score 0–10, mean ± SEM, n = 8
Experimental: After VMR and compliance measurements, the rat was sacrificed by exsanguination under pentobarbital anesthesia (45 mg/kg, i.p.). The colon was excised, rinsed with Krebs solution, opened along the mesenteric border, and evaluated visually for the presence of mucosal damage using a previously validated scoring system (total score 0–10, Supplementary Table S2).

cathepsin G = tested on: cathepsin G; set-up: method as in PMID 29911328; conditions: in vitro; cited from earlier work

CC(=O)Nc1ccc(OP(=O)(Oc2ccc(NC(C)=O)cc2)C(Cc2ccc(N=C(N)N)cc2)NC(=O)OCc2ccccc2)cc1.Cl (stereo not shown) [UAMC-00050]
Effect on inflammation (dry eye syndrome): anti-inflammatory effects
Effect on the other specific proteolytic activities (elastase-like, cathepsin G, kallikrein) in colonic tissue [1]: No effect
Effect on visceral sensitivity (VMR) ([2]; control rats, 5.0 mg/kg single intracolonic administration): no changes in visceral sensitivity
Effect on visceral sensitivity (VMR) ([2]; post-colitis rats, 0.1 mg/kg single intracolonic administration, 30 min before): attenuated visceral sensitivity at 30 and 40 mmHg
Effect on visceral sensitivity (VMR) ([2]; post-colitis rats, 1.0 mg/kg single intracolonic administration, 30 min before): decreased visceral sensitivity at 20 mmHg
Effect on visceral sensitivity (VMR) ([2]; post-colitis rats, 2.5 mg/kg single intracolonic administration, 30 min before): completely restored sensitivity to normal values
Effect on visceral sensitivity (VMR) ([2]; post-colitis rats, 5.0 mg/kg single intracolonic administration, 30 min before): VMRs that were even lower than those in control rats
Dose required to obtain complete reversal of visceral hypersensitivity ([2]; post-colitis rats, intracolonic): 2.5 mg/kg
Trypsin-like activity in colonic tissue (Tos-Gly-Pro-Arg-AMC) [3]: 0.23 (0.18) U/g
Macroscopy, Day of VMR (colonic mucosal damage; control rats, 5.0 mg/kg intracolonic): 0.0 ± 0.0
Macroscopy, Day of VMR (colonic mucosal damage; post-colitis rats, 0.1 mg/kg intracolonic): 0.0 ± 0.0
Macroscopy, Day of VMR (colonic mucosal damage; post-colitis rats, 1.0 mg/kg intracolonic): 0.0 ± 0.0
Macroscopy, Day of VMR (colonic mucosal damage; post-colitis rats, 2.5 mg/kg intracolonic): 0.0 ± 0.0
Macroscopy, Day of VMR (colonic mucosal damage; post-colitis rats, 5.0 mg/kg intracolonic): 0.0 ± 0.0
Effect on macroscopic evaluation of mucosal damage (colonic mucosal damage; single intracolonic administration, control and post-colitis rats): no effect
inhibition of cathepsin G (cathepsin G): efficiently inhibits
